# Experimental data: ChEMBL document CHEMBL3045187, “Chemical weed control in seedbed sown onion (Allium cepa L.)” (Crop Prot, 2006)
# What was measured:
# [1] = tested on: Allium cepa; test: Phytotoxicity in Allium cepa (onion) seedling assessed as total fresh weight at 7 kg/ha applied as spray before seed sowing (reference value: 7.71 MT/ha); assay type: organism-based; conditions: in vivo, other
# [2] = tested on: Chenopodiastrum murale; test: Herbicidal activity against Chenopodium murale assessed as total dry weight at 7 kg/ha applied as spray before seed sowing (reference value: 4.1 MT/ha); assay type: functional
# [3] = tested on: Malva sylvestris; test: Herbicidal activity against Malva sylvestris assessed as total dry weight at 7 kg/ha applied as spray before seed sowing (reference value: 4.1 MT/ha); assay type: functional
# [4] = tested on: Cyperus rotundus; test: Herbicidal activity against Cyperus rotundus assessed as total fresh weight at 7 kg/ha applied as spray before seed sowing (reference value: 23.6 MT/ha); assay type: functional
# [5] = tested on: Malva sylvestris; test: Herbicidal activity against Malva sylvestris assessed as total fresh weight at 7 kg/ha applied as spray before seed sowing (reference value: 23.6 MT/ha); assay type: functional
# [6] = tested on: Chenopodiastrum murale; test: Herbicidal activity against Chenopodium murale assessed as total fresh weight at 7 kg/ha applied as spray before seed sowing (reference value: 23.6 MT/ha); assay type: functional
# [7] = tested on: Cyperus rotundus; test: Herbicidal activity against Cyperus rotundus assessed as total dry weight at 7 kg/ha applied as spray before seed sowing (reference value: 4.1 MT/ha); assay type: functional
# [8] = tested on: Malva sylvestris; test: Herbicidal activity against Malva sylvestris assessed as total dry weight at 3.75 kg/ha applied as spray before seed sowing (reference value: 4.1 MT/ha); assay type: functional
# [9] = tested on: Allium cepa; test: Phytotoxicity in Allium cepa (onion) seedling assessed as total fresh weight at 3.75 kg/ha applied as spray before seed sowing (reference value: 7.71 MT/ha); assay type: organism-based; conditions: in vivo, other
# [10] = tested on: Cyperus rotundus; test: Herbicidal activity against Cyperus rotundus assessed as total dry weight at 3.75 kg/ha applied as spray before seed sowing (reference value: 4.1 MT/ha); assay type: functional
# [11] = tested on: Chenopodiastrum murale; test: Herbicidal activity against Chenopodium murale assessed as total dry weight at 3.75 kg/ha applied as spray before seed sowing (reference value: 4.1 MT/ha); assay type: functional
# [12] = tested on: Cyperus rotundus; test: Herbicidal activity against Cyperus rotundus assessed as total fresh weight at 3.75 kg/ha applied as spray before seed sowing (reference value: 23.6 MT/ha); assay type: functional
# [13] = tested on: Chenopodiastrum murale; test: Herbicidal activity against Chenopodium murale assessed as total fresh weight at 3.75 kg/ha applied as spray before seed sowing (reference value: 23.6 MT/ha); assay type: functional
# [14] = tested on: Malva sylvestris; test: Herbicidal activity against Malva sylvestris assessed as total fresh weight at 3.75 kg/ha applied as spray before seed sowing (reference value: 23.6 MT/ha); assay type: functional
# [15] = tested on: Chenopodiastrum murale; test: Herbicidal activity against Chenopodium murale assessed as total fresh weight at 2.45 kg/ha applied as spray before seed sowing (reference value: 23.6 MT/ha); assay type: functional
# [16] = tested on: Chenopodiastrum murale; test: Herbicidal activity against Chenopodium murale assessed as total dry weight at 2.45 kg/ha applied as spray before seed sowing (reference value: 4.1 MT/ha); assay type: functional
# [17] = tested on: Malva sylvestris; test: Herbicidal activity against Malva sylvestris assessed as total fresh weight at 2.45 kg/ha applied as spray before seed sowing (reference value: 23.6 MT/ha); assay type: functional
# [18] = tested on: Allium cepa; test: Phytotoxicity in Allium cepa (onion) seedling assessed as total fresh weight at 2.45 kg/ha applied as spray before seed sowing (reference value: 7.71 MT/ha); assay type: organism-based; conditions: in vivo, other
# [19] = tested on: Cyperus rotundus; test: Herbicidal activity against Cyperus rotundus assessed as total fresh weight at 2.45 kg/ha applied as spray before seed sowing (reference value: 23.6 MT/ha); assay type: functional
# [20] = tested on: Malva sylvestris; test: Herbicidal activity against Malva sylvestris assessed as total dry weight at 2.45 kg/ha applied as spray before seed sowing (reference value: 4.1 MT/ha); assay type: functional
# [21] = tested on: Cyperus rotundus; test: Herbicidal activity against Cyperus rotundus assessed as total dry weight at 2.45 kg/ha applied as spray before seed sowing (reference value: 4.1 MT/ha); assay type: functional
# [22] = tested on: Chenopodiastrum murale; test: Herbicidal activity against Chenopodium murale assessed as total dry weight at 0.35 kg/ha applied as spray before seed sowing (reference value: 4.1 MT/ha); assay type: functional
# [23] = tested on: Allium cepa; test: Phytotoxicity in Allium cepa (onion) seedling assessed as total fresh weight at 0.35 kg/ha applied as spray before seed sowing (reference value: 7.71 MT/ha); assay type: organism-based; conditions: in vivo, other
# [24] = tested on: Malva sylvestris; test: Herbicidal activity against Malva sylvestris assessed as total fresh weight at 0.35 kg/ha applied as spray before seed sowing (reference value: 23.6 MT/ha); assay type: functional
# [25] = tested on: Malva sylvestris; test: Herbicidal activity against Malva sylvestris assessed as total dry weight at 0.35 kg/ha applied as spray before seed sowing (reference value: 4.1 MT/ha); assay type: functional
# [26] = tested on: Cyperus rotundus; test: Herbicidal activity against Cyperus rotundus assessed as total dry weight at 0.35 kg/ha applied as spray before seed sowing (reference value: 4.1 MT/ha); assay type: functional
# [27] = tested on: Cyperus rotundus; test: Herbicidal activity against Cyperus rotundus assessed as total fresh weight at 0.35 kg/ha applied as spray before seed sowing (reference value: 23.6 MT/ha); assay type: functional
# [28] = tested on: Chenopodiastrum murale; test: Herbicidal activity against Chenopodium murale assessed as total fresh weight at 0.35 kg/ha applied as spray before seed sowing (reference value: 23.6 MT/ha); assay type: functional
# [29] = tested on: Malva sylvestris; test: Herbicidal activity against Malva sylvestris assessed as decrease in total dry weight at 0.75 kg/ha applied as spray during post-emergence relative to weed-infested control; assay type: functional; set-up: scale not given: the % may be the effect or the level left
# [30] = tested on: Chenopodiastrum murale; test: Herbicidal activity against Chenopodium murale assessed as total dry weight at 0.75 kg/ha applied as spray before seed sowing (reference value: 4.1 MT/ha); assay type: functional
# [31] = tested on: Chenopodiastrum murale; test: Herbicidal activity against Chenopodium murale assessed as total fresh weight at 0.75 kg/ha applied as spray before seed sowing (reference value: 23.6 MT/ha); assay type: functional
# [32] = tested on: Chenopodiastrum murale; test: Herbicidal activity against Chenopodium murale assessed as total fresh weight at 0.75 kg/ha applied as spray during postemergence (reference value: 23.6 MT/ha); assay type: functional
# [33] = tested on: Chenopodiastrum murale; test: Herbicidal activity against Chenopodium murale assessed as decrease in total dry weight at 0.75 kg/ha applied as spray during postemergence relative to weed-infested control; assay type: functional; set-up: scale not given: the % may be the effect or the level left
# [34] = tested on: Cyperus rotundus; test: Herbicidal activity against Cyperus rotundus assessed as total dry weight at 0.75 kg/ha applied as spray before seed sowing (reference value: 4.1 MT/ha); assay type: functional
# [35] = tested on: Malva sylvestris; test: Herbicidal activity against Malva sylvestris assessed as total fresh weight at 0.75 kg/ha applied as spray before seed sowing (reference value: 23.6 MT/ha); assay type: functional
# [36] = tested on: Allium cepa; test: Phytotoxicity in Allium cepa (onion) seedling assessed as total fresh weight at 0.75 kg/ha applied as spray before seed sowing (reference value: 7.71 MT/ha); assay type: organism-based; conditions: in vivo, other
# [37] = tested on: Cyperus rotundus; test: Herbicidal activity against Cyperus rotundus assessed as total fresh weight at 0.75 kg/ha applied as spray during post-emergence (reference value: 23.6 MT/ha); assay type: functional
# [38] = tested on: Allium cepa; test: Phytotoxicity in Allium cepa (onion) seedling assessed as total fresh weight at 0.75 kg/ha applied as spray during post-emergence (reference value: 7.71 MT/ha); assay type: organism-based; conditions: in vivo, other
# [39] = tested on: Malva sylvestris; test: Herbicidal activity against Malva sylvestris assessed as total fresh weight at 0.75 kg/ha applied as spray during post-emergence (reference value: 23.6 MT/ha); assay type: functional
# [40] = tested on: Cyperus rotundus; test: Herbicidal activity against Cyperus rotundus assessed as total fresh weight at 0.75 kg/ha applied as spray before seed sowing (reference value: 23.6 MT/ha); assay type: functional
# [41] = tested on: Cyperus rotundus; test: Herbicidal activity against Cyperus rotundus assessed as decrease in total dry weight at 0.75 kg/ha applied as spray during post-emergence relative to weed-infested control; assay type: functional; set-up: scale not given: the % may be the effect or the level left
# [42] = tested on: Malva sylvestris; test: Herbicidal activity against Malva sylvestris assessed as total dry weight at 0.75 kg/ha applied as spray before seed sowing (reference value: 4.1 MT/ha); assay type: functional
smiles,measurement,setting,value
COC(=O)c1c(Cl)c(Cl)c(C(=O)OC)c(Cl)c1Cl [DACTHAL],Activity,[1],8.2 MT/ha
same,Activity,[2],3.63 MT/ha
same,Activity,[3],3.63 MT/ha
same,Activity,[4],19 MT/ha
same,Activity,[5],19 MT/ha
same,Activity,[6],19 MT/ha
same,Activity,[7],3.63 MT/ha
CN(C)C(=O)C(c1ccccc1)c1ccccc1 [DIPHENAMIDE],Activity,[8],4.79 MT/ha
same,Activity,[9],5.16 MT/ha
same,Activity,[10],4.79 MT/ha
same,Activity,[11],4.79 MT/ha
same,Activity,[12],21.5 MT/ha
same,Activity,[13],21.5 MT/ha
same,Activity,[14],21.5 MT/ha
CNC(=O)N(C)c1nc2ccccc2s1 [METHABENZTHIAZURON],Activity,[15],9 MT/ha
same,Activity,[16],2.85 MT/ha
same,Activity,[17],9 MT/ha
same,Activity,[18],7.18 MT/ha
same,Activity,[19],9 MT/ha
same,Activity,[20],2.85 MT/ha
same,Activity,[21],2.85 MT/ha
CSc1nnc(C(C)(C)C)c(=O)n1N [METRIBUZIN],Activity,[22],3.32 MT/ha
same,Activity,[23],7.64 MT/ha
same,Activity,[24],17.1 MT/ha
same,Activity,[25],3.32 MT/ha
same,Activity,[26],3.32 MT/ha
same,Activity,[27],17.1 MT/ha
same,Activity,[28],17.1 MT/ha
CC(C)Oc1cc(-n2nc(C(C)(C)C)oc2=O)c(Cl)cc1Cl [OXADIAZON],Activity,[29],57%
same,Activity,[30],2.37 MT/ha
same,Activity,[31],13.3 MT/ha
same,Activity,[32],10.8 MT/ha
same,Activity,[33],57%
same,Activity,[34],2.37 MT/ha
same,Activity,[35],13.3 MT/ha
same,Activity,[36],13.37 MT/ha
same,Activity,[37],10.8 MT/ha
same,Activity,[38],15.69 MT/ha
same,Activity,[39],10.8 MT/ha
same,Activity,[40],13.3 MT/ha
same,Activity,[41],57%
same,Activity,[42],2.37 MT/ha
